# In ChEMBL document CHEMBL4033646, “Structure of a Myeloid cell leukemia-1 (Mcl-1) inhibitor bound to drug site 3 of Human Serum Albumin” (Bioorg Med Chem, 2017):
# Key:
# [1] = target: T1, Induced myeloid leukemia cell differentiation protein Mcl-1 (Homo sapiens, UniProt Q07820); test: Inhibition of FITC-Bak-BH3 binding to recombinant MBP-fused MCL1 (172 to 318 residues) (unknown origin) by TR-FRET assay
# [2] = target: T1, Induced myeloid leukemia cell differentiation protein Mcl-1; test: Inhibition of FITC-Bak-BH3 binding to recombinant MBP-fused MCL1 (172 to 318 residues) (unknown origin) in presence of 1% FBS by TR-FRET assay
# T1 sequence (Q07820 whole entry, the tested form may be a part): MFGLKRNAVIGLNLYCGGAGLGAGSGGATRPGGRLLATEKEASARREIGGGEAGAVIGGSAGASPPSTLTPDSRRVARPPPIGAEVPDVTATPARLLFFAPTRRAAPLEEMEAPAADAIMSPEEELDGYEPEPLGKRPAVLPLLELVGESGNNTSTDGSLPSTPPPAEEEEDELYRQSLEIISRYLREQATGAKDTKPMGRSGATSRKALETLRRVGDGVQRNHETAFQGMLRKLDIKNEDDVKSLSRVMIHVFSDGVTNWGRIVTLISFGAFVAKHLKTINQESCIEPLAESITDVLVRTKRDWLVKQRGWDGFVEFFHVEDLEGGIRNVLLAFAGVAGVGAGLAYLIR
Ki [1] [nM],Ki [2] [nM],Structure (SMILES)
20,32,Cc1cc(OCCCc2c(C(=O)O)[nH]c3c(-c4c(COCCN(C)C)nn(C)c4C)cccc23)cc(C)c1Cl
48,262,Cc1cc(OCCCc2c(C(=O)O)[nH]c3c(-c4c(C)nn(C)c4C)cccc23)cc(C)c1Cl
22,73,Cc1cc(OCCCc2c(C(=O)O)[nH]c3c(-c4c(CN5CCCCC5)nn(C)c4C)cccc23)cc(C)c1Cl
